In test [1] the test system is p-MDA-MB-231. Kind of test: Tumor volume in breast cancer animal model injected with ordinary cancer cells (P231). It counts as in vivo, BALB/c nude mice. The protocol: (§1) In order to identify a therapeutic method effective against cancer stem cells, breast cancer animal models were constructed. For construction of the breast cancer animal models, each of breast cancer cells (p-MDA-MB-231 and p-MCF-7) and breast cancer stem cell lines (s-MDA-MB-231 and s-MCF-7) was cultured in vitro, and the cultured cells were injected into the upper left flank of 5-6-week-old BALB/c nude mice at a density of 1.0×10^7 cells/mouse. Then, the mice were housed at 22° C. under a 12-hr light/12-hr dark cycle for 7 days while they were fed with water and feed, thereby constructing breast cancer animal models.

Test [2] concerns s-MDA-MB-231. Kind of test: Tumor volume in breast cancer animal model injected with cancer stem cells (S231). Format: in vivo, BALB/c nude mice. The following applies: for tumor volume: in mm³ (unit assumed). How it is done: as §1
Test [3] deals with cancer stem cells. Put plainly: TUNEL assay (apoptosis, DNA fragmentation) in cancer stem cells under nutrient deprivation. Format: cell-based. The following applies: 10 μM. How it is done: In order to examine whether the reason why cancer stem cells show high viability under nutrient deprivation is because of their resistance to apoptosis, each of p-MDA-MB-231, p-MCF-7, s-MDA-MB-231 and s-MCF-7 cell lines, cultured under glucose deprivation for 40 hours in the same manner as described in Example 2, was collected and subjected to a TUNEL assay. In the TUNEL assay, the collected cells were fixed with 4% paraformaldehyde solution for 48 hours, and then stained using a Terminal Deoxynucleotidyl Transferase dUTP Nick end Labeling (TUNEL) kit according to the manufacturer's protocol, and the fluorescence images of the cells were acquired with a fluorescence microscope and analyzed using Zeiss LSM Image Browser software program. […]
(§2) In order to examine an effect which occurs when CaMK-2α signaling is inhibited, the cancer stem cells were treated with 10 μM of KN62 (1-[N,O-bis(5-isoquinolinesulfonyl)-N-methyl-L-tyrosyl]-4-phenylpiperazine) well known as an inhibitor of CaMK-2α, and then a TUNEL assay was performed in the same manner as described in Example 3.1 to examine apoptosis and DNA fragmentation. In addition, Western blotting was performed in the same manner as described in Example 3.2 to examine the expression of genes, and the viability of the cells was measured in the same manner as described in Example 2.

Test [4] deals with cancer stem cells. Put plainly: Immunoblot analysis (Western blotting) of cancer stem cells under nutrient deprivation. Format: cell-based. The conditions noted are these: 10 μM. How it is done:
In order to examine whether apoptosis-related proteins are involved in apoptotic resistance which is the reason why the cancer stem cells show high viability under nutrient deprivation, each of p-MDA-MB-231, p-MCF-7, s-MDA-MB-231 and s-MCF-7 cell lines, cultured under glucose deprivation for 40 hours in the same manner as described in Example 2, was collected and subjected to immunoblot analysis. The collected cells were washed twice with chilled PBS (phosphate buffered saline) buffer, and lysed with RIPA buffer to isolate protein. For the next experiment, the amount of the isolated protein was measured by a BCA assay. 20 μg of the protein obtained from each of the cell lines was electrophoresed on 8-10% SDS-polyacrylamide gel and transferred to a PVDF membrane using electricity. The protein-transferred PVDP membranes were treated with 5% skim milk at room temperature for 1 hour, and then incubated with a primary antibody against each of caspase-3, caspase-7, Bcl-2 and beta-actin (control) at 4° C. for 16 hours. The PVDP membranes incubated with the antibodies were washed three times with TBST buffer to remove unbound primary antibodies, and were further incubated with HPR-conjugated secondary antibodies at room temperature for 1 hour. After completion of the incubation, the membranes were washed with TBST buffer to completely remove the secondary antibodies, and were treated with ECL buffer and incubated for 3 minutes, followed by exposure to Kodak X-OMAT AR Film. […]
as §2

In test [5] the test system is cancer stem cells. Kind of test: Viability of cancer stem cells under nutrient deprivation after PMCA or SERCA inhibition. Format: cell-based. The protocol:
In order to compare the viabilities of cancer cells and cancer stem cells under glucose deprivation, each of p-MDA-MB-231, p-MCF-7, s-MDA-MB-231 and s-MCF-7 cell lines, prepared in the same manner as described in Example 1, was added to a 96-well plate at a concentration of 5×10^3 cells/100 μL and cultured to a confluence of about 70%, and then the medium was replaced with a glucose-deprived in RPMI-1640 medium containing 10% FBS, and the cells were further cultured for 3 days. At each of 0, 12, 24, 36, 48, 60 and 72 hours, the viability of each of the cell lines was determined by crystal violet staining and an MTT (3-(4,5-dimethylthiazol-2-yl)-2,5-diphenyltetrazolium bromide) assay. In order to examine whether the calcium concentration regulatory ability of the cancer stem cells is changed when PMCA is inhibited under nutrient deprivation, the activity of PMCA and SERCA was inhibited by using caloxin (which is a calcium pump inhibitor) as an inhibitor of PMCA acting as Ca^2+-ATPase (calcium ATPase) in the plasma membrane and using thapsigargin which is an inhibitor of SERCA (sarco/endoplasmic reticulum Ca^2+-ATPase) acting as Ca^2+-ATPase (calcium ATPase), and then changes in the extracellular Ca^2+ concentrations of the cancer stem cells were measured.

Test [6] concerns cancer stem cells. Put plainly: Extracellular Ca2+ concentration of cancer stem cells after PMCA or SERCA inhibition. The following applies: nutrient deprivation. It counts as cell-based. From the text:
In order to examine whether the calcium concentration regulatory ability of the cancer stem cells is changed when PMCA is inhibited under nutrient deprivation, the activity of PMCA and SERCA was inhibited by using caloxin (which is a calcium pump inhibitor) as an inhibitor of PMCA acting as Ca^2+-ATPase (calcium ATPase) in the plasma membrane and using thapsigargin which is an inhibitor of SERCA (sarco/endoplasmic reticulum Ca^2+-ATPase) acting as Ca^2+-ATPase (calcium ATPase), and then changes in the extracellular Ca^2+ concentrations of the cancer stem cells were measured.

The structures appear in SMILES notation.

As for `O=CC[C@@H](O)[C@H](O)[C@H](O)CO` [2DG, 2-deoxyglucose], the tumor volume in test [1] (P231, day 7, i.p. once a day, 2DG 500 mg/kg, metformin 250 mg/kg, caloxin 2al 200 mg/kg, in mm³ (unit assumed)) is given as 219.1 ± 35; in test [1] (P231, day 10, same dosing), 302 ± 49; in test [1] (P231, day 13, same dosing, in mm³ (unit assumed)) it was 337.6 ± 47; in test [1] (P231, day 16, same dosing, in mm³ (unit assumed)), 388.6 ± 47; in test [1] (P231, day 19, same dosing, in mm³ (unit assumed)) it was 440.7 ± 45; in test [1] (P231, day 22, same dosing, in mm³ (unit assumed)), 513.4 ± 46. The tumor volume was 621.4 ± 50 in test [1] (P231, day 25, same dosing, in mm³ (unit assumed)); 834.4 ± 48 in test [1] (P231, day 28, same dosing, in mm³ (unit assumed)); 1142.7 ± 50 in test [1] (P231, day 31, same dosing, in mm³ (unit assumed)); 1547.4 ± 57 in test [1] (P231, day 34, same dosing, in mm³ (unit assumed)); 1944.2 ± 64 in test [1] (P231, day 37, same dosing, in mm³ (unit assumed)); 2359.0 ± 48 in test [1] (P231, day 40, same dosing, in mm³ (unit assumed)). The tumor volume stood at 2866.1 ± 45 in test [1] (P231, day 43, same dosing, in mm³ (unit assumed)); 228.5 ± 23 in test [2] (S231, day 7, i.p. once a day, 2DG 500 mg/kg, metformin 250 mg/kg, caloxin 2al 200 mg/kg); 277.6 ± 21 in test [2] (S231, day 10, same dosing); 474.4 ± 31 in test [2] (S231, day 13, same dosing); 539.2 ± 33 in test [2] (S231, day 16, same dosing); 638.2 ± 49 in test [2] (S231, day 19, same dosing). Further, the tumor volume in test [2] (S231, day 22, same dosing) amounted to 777.0 ± 35; in test [2] (S231, day 25, same dosing), 911.6 ± 35; in test [2] (S231, day 28, same dosing) it was 1077.4 ± 68; in test [2] (S231, day 31, same dosing), 1290.6 ± 72; in test [2] (S231, day 34, same dosing), 1722.1 ± 69; in test [2] (S231, day 37, same dosing) it was 2471.7 ± 81. The tumor volume in test [2] (S231, day 40, same dosing) amounted to 3173.2 ± 105; in test [2] (S231, day 43, same dosing), 4065.2 ± 119. In test [2] (cancer stem cell model), the “tumor volume compared to control group (in words)” value is given as “slightly decreased”.

With `CN([C@@H](Cc1ccc(OS(=O)(=O)c2cccc3cnccc23)cc1)C(=O)N1CCN(c2ccccc2)CC1)S(=O)(=O)c1cccc2cnccc12` [KN62, 1-[N,O-bis(5-isoquinolinesulfonyl)-N-methyl-L-tyrosyl]-4-phenylpiperazine], in test [3], the “apoptosis (TUNEL assay)” value is “inducing apoptosis”. In addition, in test [4], the “expression of IP3R” value was “inhibited”, the “expression of SERCA2” value is reported as “increased” and the “phosphorylation of NF-kB” value is recorded as “did not occur”.

Regarding `C/C=C(/C)C(=O)O[C@H]1C(C)=C2[C@H]([C@@H]1OC(=O)CCCCCCC)[C@@](C)(OC(C)=O)C[C@H](OC(=O)CCC)[C@@]1(O)[C@H]2OC(=O)[C@@]1(C)O` [thapsigargin], the “viability of the cells” value in test [5] is reported as “also high”. Besides, the “extracellular calcium concentration of the cancer stem cells” value in test [6] is reported as “maintained at a high level”.

(Values after patent publication US20170312333A1, “Composition for Treating Cancer Stem Cells” (Industry-Academic Corporation Foundation, Yonsei University, priority 2014, published 2017).)
